Test results from US20210340572A1, “HIGH-CONTENT IMAGING OF MICROFLUIDIC DEVICES” (EMULATE, Inc., priority 2019, published 2021).

How the values were obtained:
stellate cells = assay: Stellate cell activation (alpha-SMA) in human chips; assay type: cell-based
Method: Microfluidic devices seeded with liver cells and static sandwich plate cultures were fixed with 4% paraformaldehyde for 15 minutes at room temperature, washed with PBS, and permeabilized (saponin 1% with 10% serum in PBS). Blocking and incubation with the primary antibodies (overnight in PBS containing 1% BSA or PBS containing 10% serum and 1% BSA) was followed by a two-hour incubation with secondary antibodies (Cell Signaling, Danvers, Mass., USA) in the same blocking buffer. Immunostaining was performed with specific primary antibodies (anti-MRP2, anti-stabilin-1, anti-BSEP, anti-α-SMA, anti-CD68; Abcam, Cambridge, Mass., USA) and images were acquired with either an Olympus fluorescence microscope (IX83) or Zeiss confocal microscope (AxiovertZ1 LSM880).
The number of CD68- or α-SMA-positive cells in the vascular channel in each group was counted in each field of view ([…]) and quantified.
The fluorescent channel (588) was first background subtracted and processed using the median filter of Image J. After processing, the signal was thresholded using adaptive thresholding function of Image J (Otsu method) to extract fluorescent regions and to measure the relative intensity of the fluorescent signal. N=4 to 6 FOVs per microfluidic device from each microfluidic device were analyzed. […]

[1] = tested on: microfluidic devices seeded with human liver cells; assay: Albumin secretion, microfluidic devices seeded with human liver cells; assay type: cell-based
Excerpt: Prior to cell seeding, microfluidic devices, in this case S-1 Chips (Emulate, Inc. Boston, Mass., USA), were functionalized using Emulate's proprietary protocols and reagents (ERT™), including those described herein. After surface functionalization, both channels of the microfluidic device were coated with species-specific extracellular matrices (ECM). For the human bound microfluidic device, a mixture of collagen type I (Corning, Corning, N.Y., USA) and fibronectin, e.g. bovine, (Gibco) was used; for the rat bound microfluidic devices a mixture of collagen type IV, e.g. human placenta, (Sigma-Aldrich, St. Louis, Mo., USA) and fibronectin (Gibco) was used; for the dog bound microfluidic devices a mixture of collagen I (Corning), collagen type IV (Sigma-Aldrich), and fibronectin (Gibco) was used. […] For the dual-cell culture model (hepatocytes and endothelial cells), the LSECs were seeded at a concentration of 2-4 million cells/mL in the lower vascular channel. […] After cell seeding, the upper channel of the microfluidic device was maintained in William's E Medium (WEM) containing Glutamax (Gibco), ITS+(Corning), dexamethasone (Sigma-Aldrich), ascorbic acid (Sigma-Aldrich), fetal bovine serum (FBS) (Sigma-Aldrich), and Penicillin/Streptomycin (Sigma-Aldrich). The vascular channel of the microfluidic device was maintained with species-specific endothelial media (Emulate, Inc.). Two days after seeding, the microfluidic devices were connected to the Human Emulation System™ (Emulate, Inc.), as described in part herein, and both of the microfluidic device channels were perfused at 30 μL/hr to provide a continuous supply of fresh media for the duration of the experiments. Albumin secretion from the upper channel was quantified using ELISA kits for human, rat, and dog models effluent samples (human and rat: Abcam; dog: Immunology Consultants Laboratory, Inc., Portland, Oreg., USA) and the assays were performed according to the protocol provided by each vendor.

[2] = tested on: microfluidic devices seeded with human liver cells; assay: DILI biomarker release (alpha-GST, miR-122, keratin 18) from human chips; assay type: cell-based
Excerpt: Exemplary Biomarker, e.g. DILI: Keratin 18 levels were quantified in human model effluent samples from both the hepatocyte and vascular channels using the M65 EpiDeath CK18 ELISA Kit (DiaPharma, Detroit, Mich., USA). The assay was run following the vendor protocol using a standard curve ranging from 0-5,000 U/L. Additionally, a standard curve ranging from 0-500 U/L was generated independently for quality control.
Exemplary Biomarker, e.g. DILI: Alpha Glutathione S-Transferase (α-GST) levels were quantified in human model effluent samples from the upper channel using an ELISA kit (DiaPharma). The assay was run following the vendor protocol using a standard curve ranging from 0-64 μg/L. Additionally, a standard curve ranging from 0-50 μg/L was generated independently for quality control.
Exemplary Biomarker, e.g. DILI: Mir-122: Isolation of micro-RNAs was performed on upper and lower chamber eluates using Qiagen's (Hilden, Germany) miRNA isolation kit for serum and plasma. A total volume of 50 μL was used for isolation. Isolation was performed according to manufacturer's protocol using a 56.5 pM oligonucleotide spike-in control. Samples were eluted with 14 μL RNase-free water. Reverse transcription was performed using Thermo Fisher Scientific's TaqMan™ MicroRNA Reverse Transcription Kit according to the manufacturer's protocol. A total reaction volume of 15 μL was used. Real-time PCR was performed using Thermo Fisher Scientific's TaqMan™ Micro-RNA Assays according to manufacturer's protocol. A total reaction volume of 10 μl was used. Normalized rrCt was used for fold-change analysis.

[3] = cited from earlier work
[4] = tested on: microfluidic devices seeded with human liver cells; assay: Lipid accumulation (Nile red / AdipoRed) in human chips; assay type: cell-based
Excerpt: (§1) Microfluidic devices seeded with liver cells were stained in the upper channel with 5(6)-Carboxy-2′,7′-dichlorofluorescein diacetate (CDFDA) (ThermoFisher) to visualize bile canaliculi and MRP2 activity, cholyl-lysyl-fluorescein (CLF) (Corning) to visualize bile canaliculi and BSEP activity, Nile red (ThermoFisher) or AdipoRed (Lonza) to visualize lipid droplet accumulation, Tetramethylrhodamine, methyl ester (TMRM) (ThermoFisher) to visualize active mitochondria, and CellROX® (ThermoFisher) to visualize cellular oxidative stress. Each staining solution was prepared in blank medium or compound dosing medium and added to the upper channel, incubated for 15 minutes at 37° C., and washed three times with medium. The stained microfluidic devices were imaged using a specific filter, and were de-blurred with Olympus cellSens software. Using ImageJ-Fiji, the fluorescent channel images were histogram adjusted to remove background, followed by fluorescence quantification using the Integrated Density calculation function.
(§2) The stained microfluidic devices were imaged using the TRITC filter, and were de-blurred with Olympus cellSens software. Using ImageJ-Fiji, the fluorescent channel images were histogram adjusted to remove background, followed by fluorescence quantification using the Integrated Density calculation function. N=5 FOVs per microfluidic device were analyzed for conditions: vehicle (0.1% DMSO), FIAU dosing groups, and MTX dosing groups.

[5] = tested on: microfluidic devices seeded with human liver cells; assay: Cytokine release (IL-6, MCP-1, IP-10) from the vascular channel of human chips; assay type: cell-based; details: for IL-6 release / MCP-1 release: 14 days; for release of cytokines/chemokines including IP-10: treated chips
Method: Cytokines: Release of IL-6, MCP-1, and IP-10 from the vascular channel was quantified using U-PLEX biomarker human assays (Meso Scale Diagnostics, Rockville, Md., USA) and the assays were performed according to the protocol provided by the vendor.

MRP2 = target: T1, MRP2 (Homo sapiens, UniProt Q92887); assay: Biliary efflux of MRP2 substrate CDFDA in human chips; assay type: cell-based; details: TAK-875 3, 10, 30 μM, up to 15 days
T1 construct: Primary rat, dog or human hepatocytes were cultured in the upper parenchymal channel; endogenous in cells; host or cells: primary human hepatocytes in a microfluidic Liver-Chip

[6] = tested on: microfluidic devices seeded with human liver cells; assay: ROS levels (CellROX) in human chips; assay type: cell-based; details: TAK-875, up to 15 days
[7] = tested on: microfluidic devices seeded with human liver cells; assay: Mitochondrial membrane potential (TMRM) in human chips; assay type: cell-based; details: TAK-875 3, 10, 30 μM, 8 or 15 days
Excerpt: as §1

[8] = tested on: microfluidic devices seeded with rat liver cells; assay: Albumin secretion / hepatocyte function, microfluidic devices seeded with rat liver cells; assay type: cell-based; details: rat quadruple-cell chips, 1, 10, 30 μM
Excerpt: Prior to cell seeding, microfluidic devices, in this case S-1 Chips (Emulate, Inc. Boston, Mass., USA), were functionalized using Emulate's proprietary protocols and reagents (ERT™), including those described herein. After surface functionalization, both channels of the microfluidic device were coated with species-specific extracellular matrices (ECM). For the human bound microfluidic device, a mixture of collagen type I (Corning, Corning, N.Y., USA) and fibronectin, e.g. bovine, (Gibco) was used; for the rat bound microfluidic devices a mixture of collagen type IV, e.g. human placenta, (Sigma-Aldrich, St. Louis, Mo., USA) and fibronectin (Gibco) was used; for the dog bound microfluidic devices a mixture of collagen I (Corning), collagen type IV (Sigma-Aldrich), and fibronectin (Gibco) was used. […] For the dual-cell culture model (hepatocytes and endothelial cells), the LSECs were seeded at a concentration of 2-4 million cells/mL in the lower vascular channel. […] Albumin secretion from the upper channel was quantified using ELISA kits for human, rat, and dog models effluent samples (human and rat: Abcam; dog: Immunology Consultants Laboratory, Inc., Portland, Oreg., USA) and the assays were performed according to the protocol provided by each vendor.

[9] = tested on: microfluidic devices seeded with rat liver cells; assay: Lipid accumulation (Nile red) in rat chips; assay type: cell-based; details: rat chips, 1, 10, 30 μM, 10 days
Excerpt: as §1, with “The stained microfluidic devices were imaged using a specific filter, and were de-blurred with Olympus cellSens software.” left out
as §2

[10] = tested on: hepatocytes in microfluidic devices seeded with human liver cells; assay: Hepatocyte morphology (bright-field) in human chips; assay type: cell-based; details: quadruple-cell human chips, daily administration 7 days

T1 sequence (Q92887 whole entry): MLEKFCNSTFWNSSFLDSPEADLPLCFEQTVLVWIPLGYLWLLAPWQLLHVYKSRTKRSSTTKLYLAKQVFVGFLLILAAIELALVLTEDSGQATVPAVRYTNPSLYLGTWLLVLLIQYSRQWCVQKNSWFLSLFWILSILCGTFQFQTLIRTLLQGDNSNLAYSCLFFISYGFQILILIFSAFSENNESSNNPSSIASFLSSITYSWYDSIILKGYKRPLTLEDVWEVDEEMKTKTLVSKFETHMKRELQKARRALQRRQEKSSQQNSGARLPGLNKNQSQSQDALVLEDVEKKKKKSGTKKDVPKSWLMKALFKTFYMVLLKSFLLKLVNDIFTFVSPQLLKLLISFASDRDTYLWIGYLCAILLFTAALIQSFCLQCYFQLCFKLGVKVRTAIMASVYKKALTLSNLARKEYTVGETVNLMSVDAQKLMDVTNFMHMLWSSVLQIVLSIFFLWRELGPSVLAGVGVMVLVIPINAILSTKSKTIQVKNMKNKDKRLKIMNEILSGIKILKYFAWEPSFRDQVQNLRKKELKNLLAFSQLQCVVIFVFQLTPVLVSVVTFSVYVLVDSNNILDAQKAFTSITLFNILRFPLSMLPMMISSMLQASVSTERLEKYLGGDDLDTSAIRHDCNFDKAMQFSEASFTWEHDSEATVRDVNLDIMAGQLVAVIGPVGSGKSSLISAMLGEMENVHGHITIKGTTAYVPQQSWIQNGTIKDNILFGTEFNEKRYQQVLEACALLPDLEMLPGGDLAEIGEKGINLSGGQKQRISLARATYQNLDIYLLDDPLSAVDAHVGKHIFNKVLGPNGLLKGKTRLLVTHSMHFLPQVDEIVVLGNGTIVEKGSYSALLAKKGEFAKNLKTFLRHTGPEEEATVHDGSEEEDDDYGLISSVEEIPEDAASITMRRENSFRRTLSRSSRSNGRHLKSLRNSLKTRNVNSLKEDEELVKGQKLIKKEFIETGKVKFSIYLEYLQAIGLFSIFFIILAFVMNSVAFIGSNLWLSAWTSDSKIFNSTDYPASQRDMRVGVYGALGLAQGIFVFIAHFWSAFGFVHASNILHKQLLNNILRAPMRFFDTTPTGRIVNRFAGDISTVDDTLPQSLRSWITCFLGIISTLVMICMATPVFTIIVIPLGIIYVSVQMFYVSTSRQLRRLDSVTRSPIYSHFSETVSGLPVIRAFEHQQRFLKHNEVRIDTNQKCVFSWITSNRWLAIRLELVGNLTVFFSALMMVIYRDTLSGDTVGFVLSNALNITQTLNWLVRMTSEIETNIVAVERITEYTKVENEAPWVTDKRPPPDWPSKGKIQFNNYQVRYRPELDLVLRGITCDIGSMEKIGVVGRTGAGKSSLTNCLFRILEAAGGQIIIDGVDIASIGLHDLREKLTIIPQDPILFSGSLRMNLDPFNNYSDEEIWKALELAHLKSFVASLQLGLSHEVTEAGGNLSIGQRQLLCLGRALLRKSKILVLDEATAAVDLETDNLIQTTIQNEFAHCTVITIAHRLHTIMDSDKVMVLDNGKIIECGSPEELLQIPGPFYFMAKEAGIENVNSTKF

## Cc1cc(OCCCS(C)(=O)=O)cc(C)c1-c1cccc(COc2ccc3c(c2)OC[C@H]3CC(=O)O)c1 [TAK-875]
Stellate cells; 10 or 30 uM for 15 days, human Liver-Chips
  % aSMA positive area from the vascular channel: Not significant
[1]; 30 μM, 14 days, human chips
  albumin production: decreased
[2]; 30 μM, 14 days
  release of K18: increased release
[2]; accompanying mitochondrial perturbations, human chips
  markers of hepatocyte function or necrosis (albumin and K18): minimal changes
[3]; Phase III trials
  incidence of treatment-related elevations in transaminases (>3-fold rise in upper limit of normal): 2.7%
[4]; end of the 2-week treatment
  lipid droplet accumulation (AdipoRed): detected
[5]; 10 μM
  IL-6 release: significant release
  MCP-1 release: significant release
[5]; 30 μM (highest dose)
  IL-6 release: not observed
  MCP-1 release: not observed
MRP2
  biliary efflux of the MRP2 substrate CDFDA: dose-dependent decrease
[6]
  formation of ROS: increase
[7]
  mitochondrial membrane potential, TMRM distribution: dose-related and time-dependent redistribution

## O=c1[nH]c(=O)n([C@@H]2O[C@H](CO)[C@@H](O)[C@@H]2F)cc1I [FIAU, fialuridine]
[1]; quadruple-cell human chips, daily FIAU 1, 10, 30 μM
  concentrations with dose-dependent decline in albumin secretion: ≥ 1000 nM
[8]
  hepatocyte function: no effects
[2]; FIAU 1, 10, 30 μM, 10 days
  keratin 18 (K-18) (liver injury marker): release
  miR122 (liver injury marker): release
  α-GST (liver injury marker): release
[9]
  lipid accumulation: no effects
[3]; Phase II clinical trials
  patients with liver failure and death: 5/15
[4]; daily 1, 10, 30 μM for 10 days, human chips
  lipid accumulation (Nile red): dose-dependent increase
[5]
  release of cytokines/chemokines including IP-10: observed

## CN(Cc1cnc2nc(N)nc(N)c2n1)c1ccc(C(=O)N[C@@H](CCC(=O)O)C(=O)O)cc1 [MTX, Methotrexate]
Stellate cells; daily 1, 10, 30 μM for 7 days
  stellate cell activation, expression of α-SMA: increased expression
[1]; quadruple-cell human chips, 7 days
  albumin synthesis / secretion: no abnormalities
[10]
  hepatocyte morphology: no abnormalities
[3]; some patient populations
  maximal plasma concentration at which liver injury occurs in humans: ~1 µM
[4]; daily 1, 10, 30 μM for 7 days
  lipid accumulation (Nile red): microscopic evidence of lipid accumulation
[5]; MTX 1, 10, 30 μM, vascular channel, 1 day (FIG. 8C)
  IP-10: increases
[5]
  release of cytokines/chemokines including IP-10: observed
